From patent publication US11566007B2, “Ras inhibitors” (Revolution Medicines, Inc., priority 2019, dated 2023)
Where two headings read alike, the source gives them in different places.

What was measured:
[1] = system: NCI-H358 (K-Ras G12C); assay: CellTiter-Glo cell viability assay, NCI-H358; assay type: cell-based, human; details: NCI-H358, 5-day treatment, class symbols, read-out: Additional H358 Cell Viability assay data (K-Ras G12C, IC50)
Description: Note—The following protocol describes a procedure for monitoring cell viability of K-Ras mutant cancer cell lines in response to a compound of the invention. Other RAS isoforms may be employed, though the number of cells to be seeded will vary based on cell line used.
Test compounds (132.5 nL) were directly dispensed into the assay plates containing cells. […] On day 5, assay plates and their contents were equilibrated to room temperature for approximately 30 minutes. […] Luminescence was measured using the PerkinElmer Enspire. Data were normalized by the following: (Sample signal/Avg. DMSO)*100. The data were fit using a four-parameter logistic fit.

[2] = system: NCI-H358 cells (K-Ras G12C); assay: Potency assay: pERK in NCI-H358 cells; assay type: cell-based, human; details: H358 KRAS G12C, read-out: pERK EC50
Description: The purpose of this assay is to measure the ability of test compounds to inhibit K-Ras in cells. […] This procedure measures a decrease in cellular pERK in response to test compounds.
NCI-H358 cells were grown and maintained using media and procedures recommended by the ATCC. On the day prior to compound addition, cells were plated in 384-well cell culture plates (40 μl/well) and grown overnight in a 37° C., 5% CO2 incubator. Test compounds were prepared in 10, 3-fold dilutions in DMSO, with a high concentration of 10 mM. On the day of assay, 40 nL of test compound was added to each well of cell culture plate using an Echo550 liquid handler (LabCyte®). Concentrations of test compound were tested in duplicate. After compound addition, cells were incubated 4 hours at 37° C., 5% CO2. Following incubation, culture medium was removed and cells were washed once with phosphate buffered saline.
In some experiments, cellular pERK level was determined using the AlphaLISA SureFire Ultra p-ERK1/2 Assay Kit (PerkinElmer). Cells were lysed in 25 μL lysis buffer, with shaking at 600 RPM at room temperature. […] After a 2-hour incubation in the dark, 5 μL donor mix was added, plate was sealed, and incubated 2 hours at room temperature. Signal was read on an Envision plate reader (PerkinElmer) using standard AlphaLISA settings. Analysis of raw data was carried out in Excel (Microsoft) and Prism (GraphPad). Signal was plotted vs. the decadal logarithm of compound concentration, and IC50 was determined by fitting a 4-parameter sigmoidal concentration response model.
In other experiments, cellular pERK was determined by In-Cell Western. […] Fixed cells were washed 4 times for 5 minutes with TBS containing 0.1% Triton X-100 (TBST) and then blocked with 100 μL Odyssey blocking buffer (LI-COR) for 60 minutes at room temperature. […] Cells were washed 4 times for 5 minutes with TBST. Secondary antibody (IR-800CW rabbit, LI-COR, diluted 1:800) and DNA stain DRAQS (LI-COR, diluted 1:2000) were added and incubated 1-2 hours at room temperature. Cells were washed 4 times for 5 minutes with TBST. Plates were scanned on a Li-COR Odyssey CLx Imager. Analysis of raw data was carried out in Excel (Microsoft) and Prism (Graph Pad). Signal was plotted vs. the decadal logarithm of compound concentration, and IC50 was determined by fitting a 4-parameter sigmoidal concentration response model.

Compound | IC50 ([1]; Homo sapiens, NCI-H358, 120 h) | EC50 ([2]; Homo sapiens, NCI-H358) | IC50 [1] | EC50 [2]
C=CC(=O)N1CCC(F)(C(=O)N(C)[C@H](C(=O)N[C@H]2Cc3cc(O)cc(c3)-c3ccc4c(c3)c(c(-c3ccccc3CCOC)n4CC)CC(C)(C)COC(=O)[C@@H]3CCCN(N3)C2=O)C(C)C)CC1 [Example A11] | 100 to 1000 nM | < 5000 nM |  | 
C=CC(=O)N1CCCN(C(=O)N(C)[C@H](C(=O)N[C@H]2Cc3cc(O)cc(c3)-c3ccc4c(c3)c(c(-c3ccccc3CCOC)n4CC)CC(C)(C)COC(=O)[C@@H]3CCCN(N3)C2=O)C(C)C)CC1 [Example A13] | 100 to 1000 nM | < 5000 nM |  | 
C=CC(=O)N1CC[C@H](C(=O)N(C)[C@H](C(=O)N[C@H]2Cc3cc(O)cc(c3)-c3ccc4c(c3)c(c(-c3ccccc3OC)n4CC)CC(C)(C)COC(=O)[C@@H]3CCCN(N3)C2=O)C(C)C)C1 [Example A17] | 100 to 1000 nM | < 5000 nM |  | 
C=CC(=O)N1CCN(C(=O)N(C)[C@H](C(=O)N[C@H]2Cc3cc(O)cc(c3)-c3ccc4c(c3)c(c(-c3ccccc3CCOC)n4CC)CC(C)(C)COC(=O)[C@@H]3CCCN(N3)C2=O)C(C)C)CC1 [Example A18] | 100 to 1000 nM | < 5000 nM |  | 
C=CC(=O)N1CC[C@H](C(=O)N(C)[C@H](C(=O)N[C@H]2Cc3cc(O)cc(c3)-c3ccc4c(c3)c(c(-c3ccccc3)n4CC)CC(C)(C)COC(=O)[C@@H]3CCCN(N3)C2=O)C(C)C)C1 [Example A23] | 100 to 1000 nM | < 5000 nM |  | 
C=CC(=O)N1CC[C@H](C(=O)N(C)[C@H](C(=O)N[C@H]2Cc3cc(O)cc(c3)-c3ccc4c(c3)c(c(-c3c(F)cccc3CCOC)n4CC)CC(C)(C)COC(=O)[C@@H]3CCCN(N3)C2=O)C(C)C)C1 [Example A25] | 100 to 1000 nM | < 5000 nM |  | 
C=CC(=O)N1CC[C@H](C(=O)N(C)[C@H](C(=O)N[C@H]2Cc3cc(O)cc(c3)-c3ccc4c(c3)c(c(-c3ccccc3COC)n4CC)CC(C)(C)COC(=O)[C@@H]3CCCN(N3)C2=O)C2CCCC2)C1 [Example A27] | 10 to 100 nM | < 5000 nM |  | 
C=CC(=O)N1CC[C@H](C(=O)N(C)[C@H](C(=O)N[C@H]2Cc3cc(O)cc(c3)-c3ccc4c(c3)c(c(-c3cnccc3COC)n4CC)CC(C)(C)COC(=O)[C@@H]3CCCN(N3)C2=O)C(C)C)C1 [Example A28, (2S)-N-[(8S,14S)-22-ethyl-4-hydroxy-21-[4-(methoxymethyl)pyridin-3-yl]-18,18-dimethyl-9,15-dioxo-16-oxa-10,22,28-triazapentacyclo[18.5.2.1^[2,6].1^[10,14].0^[23,27]]nonacosa-1(26),2,4,6(29),20,23(27),24-heptaen-8-yl]-3-methyl-2-[N-methyl-1-[(3S)-1-(prop-2-enoyl)pyrrolidin-3-yl]formamido]butanamide] |  |  | < 10 nM | < 5000 nM
C=CC(=O)N1CC2(CCN([C@H](C(=O)N[C@H]3Cc4cc(O)cc(c4)-c4ccc5c(c4)c(c(-c4ccccc4CCOC)n5CC)CC(C)(C)COC(=O)[C@@H]4CCCN(N4)C3=O)C(C)C)C2=O)C1 [Example A31] | 10 to 100 nM | < 5000 nM |  | 
C=CC(=O)N1CC[C@H](C(=O)N(C)[C@H](C(=O)N[C@H]2Cc3cc(O)cc(c3)-c3ccc4c(c3)c(c(-c3ccc(C5CCN(C)CC5)cc3)n4CC)CC(C)(C)COC(=O)[C@@H]3CCCN(N3)C2=O)C(C)C)C1 [Example A39] | 10 to 100 nM | < 5000 nM |  | 
C=CC(=O)N1CC[C@H](C(=O)N(C)[C@H](C(=O)N[C@H]2Cc3cc(O)cc(c3)-c3ccc4c(c3)c(c(-c3ccc5c(c3)CCN(C)C5)n4CC)CC(C)(C)COC(=O)[C@@H]3CCCN(N3)C2=O)C(C)C)C1 [Example A40] | 10 to 100 nM | < 5000 nM |  | 
C=CC(=O)N1C[C@H](C)[C@H](C(=O)N(C)[C@H](C(=O)N[C@H]2Cc3cc(O)cc(c3)-c3ccc4c(c3)c(c(-c3ccccc3CCOC)n4CC)CC(C)(C)COC(=O)[C@@H]3CCCN(N3)C2=O)C(C)C)C1 [Example A41] | 10 to 100 nM | < 5000 nM |  | 
C=CC(=O)N1CC[C@H](C(=O)N(C)[C@H](C(=O)N[C@H]2Cc3cc(N)cc(c3)-c3ccc4c(c3)c(c(-c3ccccc3COC)n4CC)CC(C)(C)COC(=O)[C@@H]3CCCN(N3)C2=O)C(C)C)C1 [Example A42] | 100 to 1000 nM | < 5000 nM |  | 

The next lines start with results.

IC50 ([1]; Homo sapiens, NCI-H358, 120 h) | EC50 ([2]; Homo sapiens, NCI-H358) | Compound | IC50 [1] | EC50 [2]
10 to 100 nM | < 5000 nM | C=CC(=O)N1CC[C@H](C(=O)N(C)[C@H](C(=O)N[C@H]2Cc3cc(O)cc(c3)-c3ccc4c(c3)c(c(-c3ccc(CN5CCCC5)cc3)n4CC)CC(C)(C)COC(=O)[C@@H]3CCCN(N3)C2=O)C(C)C)C1 [Example A10] |  | 
100 to 1000 nM | < 5000 nM | C=CC(=O)N1CCC(C(=O)N(C)[C@H](C(=O)N[C@H]2Cc3cc(O)cc(c3)-c3ccc4c(c3)c(c(-c3ccccc3CCOC)n4CC)CC(C)(C)COC(=O)[C@@H]3CCCN(N3)C2=O)C(C)C)CC1 [Example A14] |  | 
10 to 100 nM | < 5000 nM | C=CC(=O)N1CC[C@H](C(=O)N(C)[C@H](C(=O)N[C@H]2Cc3cc(O)cc(c3)-c3ccc4c(c3)c(c(-c3cccnc3COC)n4CC)CC(C)(C)COC(=O)[C@@H]3CCCN(N3)C2=O)C(C)C)C1 [Example A16] |  | 
100 to 1000 nM | < 5000 nM | CCn1c(-c2ccccc2CCOC)c2c3cc(ccc31)-c1cc(O)cc(c1)C[C@H](NC(=O)[C@H](C(C)C)N(C)C(=O)C1CCN(C(=O)/C=C/CN(C)C)CC1)C(=O)N1CCC[C@H](N1)C(=O)OCC(C)(C)C2 [Example A19] |  | 
10 to 100 nM | < 5000 nM | C=CC(=O)N1CCC(F)(C(=O)N(C)[C@H](C(=O)N[C@H]2Cc3cc(O)cc(c3)-c3ccc4c(c3)c(c(-c3ccccc3CN(C)C)n4CC)CC(C)(C)COC(=O)[C@@H]3CCCN(N3)C2=O)C(C)C)CC1 [Example A20] |  | 
> 1000 nM | < 5000 nM | C=CC(=O)N1CC[C@H](C(=O)N(C)[C@H](C(=O)N[C@H]2Cc3cc(O)cc(c3)-c3ccc4c(c3)c(c(-c3ccc(CC(=O)O)cc3)n4CC)CC(C)(C)COC(=O)[C@@H]3CCCN(N3)C2=O)C(C)C)C1 [Example A21] |  | 
10 to 100 nM | < 5000 nM | C=CC(=O)N1CC[C@H](C(=O)N(C)[C@H](C(=O)N[C@H]2Cc3cc(O)cc(c3)-c3ccc4c(c3)c(c(-c3ccccc3[C@H](C)OC)n4CC)CC(C)(C)COC(=O)[C@@H]3CCCN(N3)C2=O)C(C)C)C1 [Example A22] |  | 
100 to 1000 nM | < 5000 nM | C=CC(=O)N1CC[C@H](C(=O)N(C)[C@H](C(=O)N[C@H]2Cc3cc(O)cc(c3)-c3ccc4c(c3)c(c(-c3ccccc3N3CCOCC3)n4CC)CC(C)(C)COC(=O)[C@@H]3CCCN(N3)C2=O)C(C)C)C1 [Example A26] |  | 
100 to 1000 nM | < 5000 nM | C=CC(=O)N1CC[C@H](C(=O)N(C)[C@H](C(=O)N[C@H]2Cc3cc(O)cc(c3)-c3ccc4c(c3)c(c(-c3ccccc3[C@@H](C)OC)n4CC)CC(C)(C)COC(=O)[C@@H]3CCCN(N3)C2=O)C(C)C)C1 [Example A29] |  | 
10 to 100 nM | < 5000 nM | C=CC(=O)N1CC[C@H](C(=O)N(C)[C@H](C(=O)N[C@H]2Cc3cc(O)cc(c3)-c3ccc4c(c3)c(c(-c3cccc(CN(C)C)c3)n4CC)CC(C)(C)COC(=O)[C@@H]3CCCN(N3)C2=O)C(C)C)C1 [Example A30] |  | 
100 to 1000 nM | < 5000 nM | C=CC(=O)N1CCC(C(=O)N(C)[C@H](C(=O)N[C@H]2Cc3cc(O)cc(c3)-c3ccc4c(c3)c(c(-c3ccccc3CN(C)C)n4CC)CC(C)(C)COC(=O)[C@@H]3CCCN(N3)C2=O)C(C)C)CC1 [Example A33] |  | 
10 to 100 nM | < 5000 nM | C=CC(=O)N1CC[C@H](C(=O)N(C)[C@H](C(=O)N[C@H]2Cc3cc(O)cc(c3)-c3ccc4c(c3)c(c(-c3ccc5cc(CN(C)C)n(C)c5c3)n4CC)CC(C)(C)COC(=O)[C@@H]3CCCN(N3)C2=O)C(C)C)C1 [Example A35] |  | 
< 10 nM | < 5000 nM | CCn1c(-c2ccccc2CCOC)c2c3cc(ccc31)-c1cc(O)cc(c1)C[C@H](NC(=O)[C@H](C(C)C)N(C)C(=O)[C@H]1CCN(C(=O)C#CCN(C)C)C1)C(=O)N1CCC[C@H](N1)C(=O)OCC(C)(C)C2 [Example A38] |  | 
